Results on nine compounds are retold here after patent US20230382940A1, “ANTIVIRAL COMPOUNDS AND METHODS OF MAKING AND USING THE SAME” (Gilead Sciences, Inc., priority 2022, published 2023).

Molecules are shown by their SMILES.

Holding throughout (format): cell-based
For test [1], the system named is Respiratory syncytial virus recombinant with luciferase (RSV-Luc5). Description: NHBE RSV-Luc5 384-well assay (EC50 RSVFLUC NHBE-384 v2), Example W. The following applies: human respiratory syncytial virus, 72 h, read-out: EC50 RSV FLUC NHBE 384 V2 (per Ex. W). The text has this: Example W: NHBE RSV-Luc5 384-Well Assay (EC50 RSVFLUC NHBE-384 v2)
Normal Human Bronchial Epithelial (NHBE) cells were purchased from Lonza (Walkersville, MD Cat #CC2540) and maintained in BEGM Bronchial Epithelial Cell Growth Medium BulletKit (Lonza CC-3170).
Cells were thawed, expanded, and were used for experiments at passage 2. Respiratory syncytial virus recombinant with luciferase (RSV-Luc5) (≥1×10^7 Infectious Units/mL (IU/mL) determined by TCID50) was purchased from Microbiologics (Saint Cloud, MN). Viral replication was determined in NHBE cells in the following manner.
(§1) Compounds are prepared in 100% DMSO in 384-well polypropylene plates (Greiner, Monroe, NC, Cat #784201) with 8 compounds per plate in grouped replicates of 4 at 10 serially diluted concentrations (1:3). The serially diluted compounds were transferred to low dead volume Echo plates (Labcyte, Sunnyvale, CA, Cat #LP-0200).
The test compounds were spotted to 384-well assay plates (Greiner, Monroe, NC, Cat #781091) at 200 nL per well using an Echo acoustic dispenser (Labcyte, Sunnyvale, CA). NHBE cells were harvested and suspended in BEGM Bronchial Epithelial Cell Growth Medium BulletKit and seeded to the pre-spotted assay plates at 5,000 cells per well in 30 μL. RSV-Luc5 virus was diluted in BEGM Bronchial Epithelial Cell Growth Medium BulletKit at 500,000 Infectious Units (IU) per mL and 10 μL per well was added to the assay plates containing cells and compounds, for an MOI of 1. The assay plates were incubated for 3 days at 37° C. and 5% CO2. At the end of incubation, One-Glo reagent (Promega, Madison, WI, Cat #E6120) was prepared. The assay plates and One-Glo reagent were equilibrated to room temperature for at least 15 minutes. 40 μL per well of One-Glo reagent was added and the plates were incubated at room temperature for 15 minutes before reading the luminescence signal on an EnVision multimode plate reader (Perkin Elmer, Waltham, MA). Remdesivir was used as positive control and DMSO was used as negative control. Values were normalized to the positive and negative controls (as 0% and 100% replication, respectively) and data was fitted using non-linear regression analysis by Gilead's dose response tool. The EC50 value for each compound was defined as the concentration reducing the viral replication by 50%.

Test [2] deals with Human Rhinovirus 1B (HRV1B). In words: H1-HeLa HRV-CTG 384-well assay, HRV1B, Example X. The following applies: Rhinovirus A, 96 h; H1-HeLa cells, HRV1B MOI 0.5, 4 days, Celltiter-Glo; read-out: EC50 H1-HeLa_HRV 1B_HRV-CTG 384-well Assay (per Ex. X). The text has this: (§2) Example X: H1-HeLa HRV-CTG 384-Well Assay
(§3) H1-Hela cell line (ATCC, Manassas, VA, Cat #CRL-1958) was maintained in Dulbecco's […] (DMEM) (Corning, New York, NY, Cat #15-018CM) supplemented with 10% fetal bovine serum (FBS) (Hyclone, Logan, UT, Cat #SH30071-03), and 1× Penicillin-Streptomycin-L-Glutamine (Corning, New York, NY, Cat #30-009-CI). Cells were passaged 2 times per week to maintain sub-confluent densities and were used for experiments at passage 5-30. The Human Rhinovirus 1B (HRV1B) (ATCC, Manassas, VA, Cat #VR-1645), Human Rhinovirus 14 (HRV14) (ATCC, Manassas, VA, Cat #VR-284), and Human Rhinovirus 16 (HRV16) (ATCC, Manassas, VA, Cat #BR-283) was obtained through ATCC. Viral infection was monitored by determining viability of H1-HeLa cells as described below.
(§4) Test molecules are prepared in 100% DMSO in 384-well polypropylene plates (Greiner, Monroe, NC, Cat #784201) with 8 compounds per plate in grouped replicates of 4 at 10 serially diluted concentrations (1:3). The serially diluted compounds were transferred to low dead volume Echo plates (Labcyte, Sunnyvale, CA, Cat #LP-0200).
(§5) The test compounds were spotted to 384-well assay plates (Greiner, Monroe, NC, Cat #781091) at 200 nL per well using an Echo acoustic dispenser (Labcyte, Sunnyvale, CA). H1-HeLa cells were harvested and suspended in DMEM (supplemented with 2% FBS and 1× Penicillin-Streptomycin-L-Glutamine) and seeded to the pre-spotted assay plates at 5,000 cells per well in 30 μL. HRV1B, HRV14, and HRV16 was diluted in DMEM (supplemented with 2% FBS and 1× Penicillin-Streptomycin-L-Glutamine) at 97.1 million Infectious Units (IU) per mL, 151 million IU per mL and 221 million IU per mL respectively. 10 μL of virus per well was added to the assay plates containing cells and compounds, for an MOI of 0.5, 1.0, and 0.25 respectively. The assay plates were incubated for 4 days at 37° C. and 5% CO2. At the end of incubation, Celltiter-Glo (Promega, Madison, WI, Cat #G7573) was prepared. The assay plates and Celltiter-Glo reagent were equilibrated to room temperature for at least 15 minutes. 40 μL per well of Celltiter-Glo reagent was added and the plates were incubated at room temperature for 15 minutes before reading the luminescence signal on an EnVision multimode plate reader (Perkin Elmer, Waltham, MA). Rupintrivir was used as positive control and DMSO was used as negative control. Values were normalized to the positive and negative controls (as 0% and 100% replication, respectively) and data was fitted using non-linear regression analysis by Gilead's dose response tool. The EC50 value for each compound was defined as the concentration reducing viral replication by 50%.
Background: In ATP-based viability assays light output follows the ATP content of the culture.

The subject of test [3] is Respiratory syncytial virus recombinant with luciferase (RSV-Luc5). In words: HEp-2 RSV-Luc5 384-well assay (EC50 RSVFLUC Hep2-384 v2), Example V. The following applies: human respiratory syncytial virus, HEp-2, 72 h, read-out: EC50 RSV FLuc Hep-2 384 V2 (per Ex. V).
Excerpt: Example V: HEp-2 RSV-Luc5 384-Well Assay (EC50 RSVFLUC Hep2-384 v2)
HEp-2 cell line was purchased from ATCC (Manassas, VA Cat #CCL-23) and maintained in Dulbecco's […] (DMEM) (Corning, New York, NY, Cat #15-018CM) supplemented with 10% fetal bovine serum (FBS) (Hyclone, Logan, UT, Cat #SH30071-03) and 1× Penicillin-Streptomycin-L-Glutamine (Corning, New York, NY, Cat #30-009-C1). Cells were passaged 2 times per week to maintain sub-confluent densities and were used for experiments at passage 5-20. Respiratory syncytial virus recombinant with luciferase (RSV-Luc5) (≥1×107 TCID50/ml) was purchased from Microbiologics (Saint Cloud, MN). Viral replication was determined in HEp-2 cells in the following manner.
as §1
The test compounds were spotted to 384-well assay plates (Greiner, Monroe, NC, Cat #781091) at 200 nL per well. HEp-2 cells were harvested and suspended in DMEM (supplemented with 10% FBS and 1× Penicillin-Streptomycin-L-Glutamine) and seeded to the pre-spotted assay plates at 4,000 cells per well in 30 μL. RSV-Luc5 viruses were diluted in DMEM (supplemented with 10% FBS and 1× Penicillin-Streptomycin-L-(Glutamine) at 200,000 Infectious Units (IU) per mL and 10 μL per well was added to the assay plates containing cells and compounds, for an MOI=0.5. The assay plates were incubated for 3 days at 37° C. and 5% CO2. At the end of incubation, One-Glo reagent (Promega, Madison, WI, Cat #E6120) was prepared. The assay plates and One-Glo reagent were equilibrated to room temperature for at least 15 minutes. 40 μL per well of One-Glo reagent was added and the plates were incubated at room temp for 15 minutes before reading the luminescence signal on an EnVision multimode plate reader (Perkin Elmer, Waltham, MA). Remdesivir was used as positive control and DMSO was used as negative control. Values were normalized to the positive and negative controls (as 0% and 100% replication, respectively) and data was fitted using non-linear regression analysis by Gilead's dose response tool. The EC50 value for each compound was then determined as the concentration reducing the viral replication by 50%.

In test [4] the test system is Human Rhinovirus 16 (HRV16). In words: H1-HeLa HRV-CTG 384-well assay, HRV16, Example X. The following applies: Rhinovirus A, 96 h; H1-HeLa cells, HRV16 MOI 0.25, 4 days, Celltiter-Glo; read-out: EC50 H1-HeLa_HRV 16_HRV-CTG 384-well Assay (per Ex. X).
Excerpt: as §2, §3, §4, §5

For test [5], the system named is Human Rhinovirus 14 (HRV14). In words: H1-HeLa HRV-CTG 384-well assay, HRV14, Example X. The following applies: Rhinovirus B, 96 h; H1-HeLa cells, HRV14 MOI 1.0, 4 days, Celltiter-Glo; read-out: EC50 H1-HeLa_HRV 14_HRV-CTG 384-well Assay (per Ex. X).
Excerpt: as §2, §3, §4, §5

The EC50 is the concentration that produces a half-maximal response. For the compound `COC(=O)OC[C@@]1(C#N)O[C@@H](c2ccc3c(N)ncnn23)[C@H](OC(=O)OC)[C@@H]1OC(=O)OC` [Compound 45, (2R,3S,4S,5S)-5-(4-aminopyrrolo[2,1-f][1,2,4]triazin-7-yl)-2-cyano-2-(((methoxycarbonyl)oxy)methyl)tetrahydrofuran-3,4-diyl dimethyl bis(carbonate)], in test [1], the EC50 was found to be 29.4 µM.
Same read-out and setting: for `CC(C)(OC(=O)OC[C@@]1(C#N)O[C@@H](c2ccc3c(N)ncnn23)[C@H](O)[C@@H]1O)C(F)F` [Compound 27, ((2R,3S,4R,5S)-5-(4-aminopyrrolo[2,1-f][1,2,4]triazin-7-yl)-2-cyano-3,4-dihydroxytetrahydrofuran-2-yl)methyl (1,1-difluoro-2-methylpropan-2-yl) carbonate] the value was 8.03 µM.
Regarding `CO[C@@H]1O[C@H]2[C@H](c3ccc4c(N)ncnn34)O[C@](C#N)(COC(=O)OCC(C)C)[C@H]2O1` (single isomer, unassigned) [Compound 25], the EC50 in test [2], in test [3], in test [4], in test [5] and in test [1] was 50 µM in each case.
Regarding `N#C[C@]1(COC(=O)OC2CCCCCCC2)O[C@@H](c2ccc3c(N)ncnn23)[C@H](O)[C@@H]1O` [Compound 18, ((2R,3S,4R,5S)-5-(4-aminopyrrolo[2,1-f][1,2,4]triazin-7-yl)-2-cyano-3,4-dihydroxytetrahydrofuran-2-yl)methyl cyclooctyl carbonate], the EC50 in test [1] turned out to be 5.77 µM.
Still for that read-out and setting: for `COC(=O)Nc1ncnn2c([C@@H]3O[C@](C#N)(COC(=O)OC)[C@@H](OC(=O)OC)[C@H]3OC(=O)OC)ccc12` [Compound 44, Methyl (7-((2S,3S,4S,5R)-5-cyano-3,4-bis((methoxycarbonyl)oxy)-5-(((methoxycarbonyl)oxy)methyl)tetrahydrofuran-2-yl)pyrrolo[2,1-f][1,2,4]triazin-4-yl)carbamate] the value was 15.8 µM.
The same measure, in the same setting: under `CC(C)OC(=O)Nc1ncnn2c([C@@H]3O[C@](C#N)(COC(=O)OC(C)C)[C@@H](OC(=O)OC(C)C)[C@H]3OC(=O)OC(C)C)ccc12` [Compound 42, Isopropyl (7-((2S,3S,4S,5R)-5-cyano-3,4-bis((isopropoxycarbonyl)oxy)-5-(((isopropoxycarbonyl)oxy)methyl)tetrahydrofuran-2-yl)pyrrolo[2,1-f][1,2,4]triazin-4-yl)carbamate] stands 26.1 µM; under `CC(C)OC(=O)OC[C@@]1(C#N)O[C@@H](c2ccc3c(N)ncnn23)[C@H](OC(=O)OC(C)C)[C@@H]1OC(=O)OC(C)C` [Compound 43, (2R,3S,4S,5S)-5-(4-aminopyrrolo[2,1-f][1,2,4]triazin-7-yl)-2-cyano-2-(((isopropoxycarbonyl)oxy)methyl)tetrahydrofuran-3,4-diyl diisopropyl bis(carbonate)], 6.99 µM.
Take `CO[C@H]1O[C@H]2[C@H](c3ccc4c(N)ncnn34)O[C@](C#N)(COC(=O)OCC(C)C)[C@H]2O1` (single isomer, unassigned) [Compound 26]: the concentration giving a half-maximal response (EC50) in test [2], in test [3], in test [4], in test [5] and in test [1] was 50 µM in each case.
Take `CC1(OC(=O)OC[C@@]2(C#N)O[C@@H](c3ccc4c(N)ncnn34)[C@H](O)[C@@H]2O)CC1` [Compound 3, ((2R,3S,4R,5S)-5-(4-aminopyrrolo[2,1-f][1,2,4]triazin-7-yl)-2-cyano-3,4-dihydroxytetrahydrofuran-2-yl)methyl (1-methylcyclopropyl) carbonate]: the concentration for a half-maximal effect (EC50) in test [2] stood at 16 µM; in test [3] it was 20.9 µM; in test [4], 34.5 µM; in test [5], 24.4 µM; in test [1] it was 7.93 µM.
